# Assay: Oral bioavailability in C57BL/6J mouse
# Type: ADME, organism-based
# Settings: in vivo
row,bioavailability,Compound
1,71.3%,COC(=O)c1cc(NS(=O)(=O)c2cc(Cl)cc(Cl)c2)ccc1S(=O)(=O)Nc1cc(Br)c(F)cc1C
2,93%,Cc1cc(F)c(Br)cc1NS(=O)(=O)c1ccc(NS(=O)(=O)c2cc(Cl)cc(Cl)c2)cc1CN1CCOC[C@H]1C

# Source: ChEMBL document CHEMBL5226318, “Emerging Therapeutic Potential of SIRT6 Modulators” (J Med Chem, 2021)
